The text below walks through data of US20100173968A1, “SUB-TYPE SELECTIVE AZABICYCLOALKANE DERIVATIVES” (TARGACEPT, INC., priority 2007, published 2010).

Assay [1] can be described thus: NOR (novel object recognition) task. The class given is in vivo. Conditions: orally, in rats. The procedure:
Certain exemplified compounds were assessed in the NOR (novel object recognition) task. This illustrates efficacy and potency of the compounds of the present invention in treating cognitive deficits, attention disorders, and dementias, and the potential of these compounds for human therapy.

For the next assay, the target named is α7 nAChR Subtype (Rattus norvegicus, UniProt Q05941). Nature of the assay: Radioligand binding at α7 nAChR subtype, inhibition of [3H]MLA binding, rat hippocampus membranes (HTS at 5 μM, then Ki).
Sequence of α7 nAChR Subtype (Q05941 23-502): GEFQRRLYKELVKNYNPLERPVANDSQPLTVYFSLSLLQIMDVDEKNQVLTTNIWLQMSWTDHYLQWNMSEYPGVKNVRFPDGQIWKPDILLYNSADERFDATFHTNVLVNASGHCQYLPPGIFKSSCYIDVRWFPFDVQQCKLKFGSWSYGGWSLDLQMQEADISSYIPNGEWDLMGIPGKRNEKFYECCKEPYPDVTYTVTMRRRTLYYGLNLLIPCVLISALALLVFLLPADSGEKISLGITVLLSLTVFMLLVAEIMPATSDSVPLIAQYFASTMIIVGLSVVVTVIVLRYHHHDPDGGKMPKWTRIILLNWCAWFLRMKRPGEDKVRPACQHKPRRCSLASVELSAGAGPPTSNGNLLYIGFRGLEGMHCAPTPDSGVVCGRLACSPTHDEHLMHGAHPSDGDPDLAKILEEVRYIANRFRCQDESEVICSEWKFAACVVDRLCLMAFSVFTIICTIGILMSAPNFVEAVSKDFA
The target of the next assay is Human α4β2 (Homo sapiens, UniProt P17787+P43681). Nature of the assay: Binding at human α4β2 (Ki); method not described.
Sequence of Human α4β2 (P43681 29-627 limits assumed): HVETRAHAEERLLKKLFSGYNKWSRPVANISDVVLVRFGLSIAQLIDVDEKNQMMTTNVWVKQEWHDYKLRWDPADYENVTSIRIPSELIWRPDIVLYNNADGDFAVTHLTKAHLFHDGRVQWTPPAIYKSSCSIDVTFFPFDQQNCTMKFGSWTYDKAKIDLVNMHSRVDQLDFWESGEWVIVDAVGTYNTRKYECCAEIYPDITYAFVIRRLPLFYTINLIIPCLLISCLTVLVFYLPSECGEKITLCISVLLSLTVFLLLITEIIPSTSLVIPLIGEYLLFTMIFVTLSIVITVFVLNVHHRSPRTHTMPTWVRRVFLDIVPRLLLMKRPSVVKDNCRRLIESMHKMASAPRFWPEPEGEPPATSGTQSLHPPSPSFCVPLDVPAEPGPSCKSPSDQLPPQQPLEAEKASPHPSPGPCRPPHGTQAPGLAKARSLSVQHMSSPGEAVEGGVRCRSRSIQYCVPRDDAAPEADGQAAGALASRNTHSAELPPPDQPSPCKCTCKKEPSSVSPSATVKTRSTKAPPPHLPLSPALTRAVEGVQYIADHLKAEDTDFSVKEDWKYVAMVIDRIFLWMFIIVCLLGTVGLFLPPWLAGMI
Sequence of Human α4β2 (P17787 26-502): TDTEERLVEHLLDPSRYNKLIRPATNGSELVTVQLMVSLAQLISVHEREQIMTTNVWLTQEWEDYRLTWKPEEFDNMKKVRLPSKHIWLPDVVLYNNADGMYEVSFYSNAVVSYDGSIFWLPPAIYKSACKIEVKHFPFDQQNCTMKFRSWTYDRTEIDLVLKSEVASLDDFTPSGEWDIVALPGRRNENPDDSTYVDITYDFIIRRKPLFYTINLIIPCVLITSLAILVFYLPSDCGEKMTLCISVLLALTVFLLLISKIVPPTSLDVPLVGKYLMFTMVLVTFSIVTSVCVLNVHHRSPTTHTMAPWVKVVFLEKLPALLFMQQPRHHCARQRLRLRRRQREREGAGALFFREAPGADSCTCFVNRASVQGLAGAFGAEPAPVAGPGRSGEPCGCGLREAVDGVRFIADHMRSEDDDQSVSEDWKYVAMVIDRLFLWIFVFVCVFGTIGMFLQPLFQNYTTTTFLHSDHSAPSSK
The target in the next assay is α4β2 nAChR Subtype (Rattus norvegicus, UniProt P09483+P12390). Nature of the assay: Radioligand binding at α4β2 nAChR subtype, inhibition of [3H]nicotine binding, rat cerebral cortex membranes. The following applies: [3H]nicotine 5 nM, read-out: Rat α4β2 Ki. The procedure:
The [^3H]nicotine (Specific Activity=81.5 Ci/mmol) was obtained from NEN Research Products. The binding of [^3H]nicotine was measured using a 3 h incubation at 4° C. […] Each filter was washed with ice-cold buffer (3×1 mL).
Each concentration was replicated in triplicate.

The structures appear in SMILES notation.

Sequence of α4β2 nAChR Subtype (P09483 31-630): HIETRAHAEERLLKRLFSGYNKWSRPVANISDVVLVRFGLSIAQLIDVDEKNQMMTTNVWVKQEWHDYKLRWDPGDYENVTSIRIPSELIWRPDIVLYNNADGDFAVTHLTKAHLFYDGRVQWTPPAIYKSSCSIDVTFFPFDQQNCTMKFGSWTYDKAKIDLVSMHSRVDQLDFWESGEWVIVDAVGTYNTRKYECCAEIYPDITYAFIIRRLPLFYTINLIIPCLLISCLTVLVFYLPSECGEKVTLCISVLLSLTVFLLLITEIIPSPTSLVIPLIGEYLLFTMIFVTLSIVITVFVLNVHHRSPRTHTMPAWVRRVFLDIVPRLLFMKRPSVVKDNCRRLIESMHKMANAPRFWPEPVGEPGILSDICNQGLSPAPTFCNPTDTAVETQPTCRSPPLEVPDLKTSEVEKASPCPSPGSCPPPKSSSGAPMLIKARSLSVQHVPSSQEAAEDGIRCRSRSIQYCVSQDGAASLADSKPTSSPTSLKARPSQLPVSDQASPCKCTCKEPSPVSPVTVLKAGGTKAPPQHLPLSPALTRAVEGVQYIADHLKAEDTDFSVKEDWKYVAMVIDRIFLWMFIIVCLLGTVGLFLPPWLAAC
Sequence of α4β2 nAChR Subtype (P12390 25-500): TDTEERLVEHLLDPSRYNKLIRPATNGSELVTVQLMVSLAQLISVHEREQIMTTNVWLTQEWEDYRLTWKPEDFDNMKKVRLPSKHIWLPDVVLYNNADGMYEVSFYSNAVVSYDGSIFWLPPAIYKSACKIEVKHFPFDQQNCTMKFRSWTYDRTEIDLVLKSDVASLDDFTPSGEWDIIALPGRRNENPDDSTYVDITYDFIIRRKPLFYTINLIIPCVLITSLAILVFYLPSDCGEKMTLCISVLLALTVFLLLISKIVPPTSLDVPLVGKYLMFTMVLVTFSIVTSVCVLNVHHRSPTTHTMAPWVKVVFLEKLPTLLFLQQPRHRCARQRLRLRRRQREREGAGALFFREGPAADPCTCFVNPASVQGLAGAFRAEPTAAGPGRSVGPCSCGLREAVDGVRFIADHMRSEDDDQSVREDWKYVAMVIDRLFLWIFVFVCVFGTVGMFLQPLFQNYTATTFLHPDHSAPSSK

As a reminder, the Ki is the dissociation constant of the complex between target and ligand, obtained from inhibition or displacement. As for `COC(=O)C1C[C@H]2CNC[C@H]2C1` (mixture of isomers) [Compound A, methyl 3-azabicyclo[3.3.0]octane-7-carboxylate], the “activity in the NOR task (recognition index)” value in assay [1] (dose of 0.1 mg/kg, FIG. 1) was “active”. The Ki on α7 nAChR Subtype was greater than 10000 nM; at Human α4β2 it was 8 nM; on α4β2 nAChR Subtype it was 20 nM.
Regarding `CNC(=O)C1CC2CNCC(C2)C1` (centres unmarked) [Compound B, N-methyl-3-azabicyclo[3.3.1]nonane-7-carboxamide], the “activity in the NOR task (recognition index)” value in assay [1] (dose of 1 mg/kg, FIG. 2) is listed as “active”. Moreover, the inhibition constant Ki at α7 nAChR Subtype is greater than 10000 nM; at Human α4β2, 2 nM; at α4β2 nAChR Subtype, 6 nM.
Consider `O=C(c1occc1Br)C1C[C@H]2CNC[C@H]2C1` (mixture of isomers) [3-bromofuran-2-yl(3-azabicyclo[3.3.0]oct-7-yl)methanone], for which the inhibition at 5 µM at α7 nAChR Subtype (read-out: α7 HTS outcome (α7 Ki)) is less than 50%. The inhibitory constant (Ki) at Human α4β2 was 0.9 nM; on α4β2 nAChR Subtype it was 2.8 nM.
